{"source": "patent US10369131B2", "about": "“Ultrapure tetrahydrocannabinol-11-oic acids” (Corbus Pharmaceuticals, Inc., priority 2013, dated 2019)", "key": {"[1]": {"tested_on": "CD-1 mice, arachidonic acid induced paw edema", "assay": "Arachidonic acid induced paw edema model", "assay_type": "in vivo, mouse", "settings": "oral 5, 50 and 500 ug/kg, 90 min before arachidonic acid, paw volume 45 min after injection", "protocol": "CD-1 Mice (Female) were randomly allocated to experimental groups and allowed to acclimatise for one week. Prior to test compound administration, baseline right hind paw volume was measured under gas (isoflurane) anaesthesia using a water displacement device (plethysmometer, Stoelting). On Day 0, ultrapure AJA suspended in 2% MC or vehicle was administered at 0, 5, 50 and 500 ug/kg by oral gavage. Ninety minutes after treatment administration, the animals were given 10 microliters of a 100 mg/ml arachidonic acid solution in 5% ethanol by subcutaneous injection into the plantar aspect of the right hind paw. A control group of animals (Group 1) was administered with an equivalent volume of a 5% ethanol solution. The left hind paws were not injected. Intra-plantar injections were performed under gas anaesthesia. 45 minutes after the intra-plantar injections right hind paw volume was measured under gas anaesthesia using a plethysmometer."}, "HL-60 cells": {"tested_on": "HL-60 cells", "assay": "PGJ synthesis in HL-60 cells (ELISA)", "assay_type": "cell-based", "settings": "TNFα 10 nM, with CB2 or CB1 antagonist, N=4", "protocol": "The CB2 antagonist SR144528 reduced ultrapure AJA-induced PGJ synthesis in HL60 immune system cells at low concentrations (squares). […] DMSO control (open circles). Treatments of cells was carried out in 48 well plates with 20,000 cells/500 μl RPMI/FCS media/well. Cells were incubated for 20 hrs at 37° C. and 5% CO2. Media was changed to 500 μl of serum free RPMI and TNFα (10 nM) added. […] N=4."}, "CB1 receptor": {"target": "CB1 receptor (Homo sapiens, UniProt P21554)", "sequence (P21554 whole entry)": "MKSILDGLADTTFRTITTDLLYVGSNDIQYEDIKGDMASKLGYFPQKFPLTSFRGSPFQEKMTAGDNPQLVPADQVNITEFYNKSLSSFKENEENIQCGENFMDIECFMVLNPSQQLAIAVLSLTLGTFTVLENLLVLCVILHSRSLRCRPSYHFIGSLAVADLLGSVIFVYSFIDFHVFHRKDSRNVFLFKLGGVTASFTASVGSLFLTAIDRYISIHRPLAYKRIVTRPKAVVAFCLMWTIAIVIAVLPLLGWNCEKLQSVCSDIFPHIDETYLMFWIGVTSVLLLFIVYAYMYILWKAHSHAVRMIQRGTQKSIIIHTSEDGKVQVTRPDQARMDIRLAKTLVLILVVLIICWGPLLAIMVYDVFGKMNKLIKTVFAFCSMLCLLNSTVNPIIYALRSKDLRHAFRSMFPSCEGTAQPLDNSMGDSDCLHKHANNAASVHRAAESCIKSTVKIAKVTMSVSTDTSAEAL", "assay": "CB receptor radioligand binding assay, human CB1", "design": "expressed in transfected cells; host or cells: HEK-293T", "protocol": "(§1) Membrane preparation—HEK-293T cells were cultured according to ATCC (Manassas, Va.) guidelines and transfected with human CB1 cDNA (Genbank X54937) or CB2 cDNA (Genbank X74328), operably linked to the SV40 promoter, using Polyfect (Qiagen, Valencia, Calif.) or Fugene (Roche, Nutley, N.J.) according to manufacturer's instructions. 48 h after transfection, cells were harvested in ice cold membrane buffer (20 mM HEPES, 6 mM MgCl2, 1 mM EDTA, pH 7.2) using a cell scraper. Cells were transferred to a nitrogen cavitation chamber and a pressure of […] was applied for 30 min. The pressure was released and the cell debris was collected and centrifuged at 1000 g at 4° C. for 10 min. The supernatant was collected and the spin was repeated until the supernatant was free of precipitate. […] The membrane concentration was determined using a BioRad (Hercules, Calif.) protein assay dye reagent according to manufacturer's instructions. […]\n(§2) Membranes were incubated for 2 hr at room temperature, then filtered onto a presoaked (with 0.1% polyethylenimine for 1 to 2 hr) 96 well GF/B filterplate (Packard Bioscience, Shelton, Conn.) and washed with […] ice cold wash buffer (25 mM HEPES, 1 mM CaCl2, 5 mM MgCl2, 0.25M NaCl) using a Filtermate 196 Harvester (Packard Instruments, Downers Grove, Ill.). […] Plates were counted on a Topcount NXT (Packard, Shelton, Conn.). […]"}, "hCB2 receptor": {"target": "hCB2 receptor (Homo sapiens, UniProt P34972)", "sequence (P34972 whole entry)": "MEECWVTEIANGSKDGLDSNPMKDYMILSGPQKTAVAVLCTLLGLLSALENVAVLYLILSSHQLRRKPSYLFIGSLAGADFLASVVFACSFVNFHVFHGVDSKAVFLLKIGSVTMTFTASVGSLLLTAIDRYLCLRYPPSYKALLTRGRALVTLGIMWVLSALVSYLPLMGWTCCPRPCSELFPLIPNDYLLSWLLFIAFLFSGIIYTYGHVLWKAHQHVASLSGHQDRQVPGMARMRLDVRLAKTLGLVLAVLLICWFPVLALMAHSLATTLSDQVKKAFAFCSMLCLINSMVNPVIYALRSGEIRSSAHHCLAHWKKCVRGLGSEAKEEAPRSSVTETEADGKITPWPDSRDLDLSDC", "assay": "CB receptor radioligand binding assay, human CB2", "design": "expressed in transfected cells; host or cells: HEK-293T", "protocol": "as §1, §2"}}}
{"molecule": "CCCCCCC(C)(C)c1cc(O)c2c(c1)OC(C)(C)[C@@H]1CC=C(C(=O)O)C[C@@H]21", "note": "[JBT-101, (6aR,10aR)-3-(1′,1′-dimethylheptyl)-Δ8-tetrahydro-cannabinol-9-carboxylic acid]", "values": [{"measurement": "inhibition of paw volume / inflammation", "setting": "[1]", "result": "effective at doses well below the doses in which CB1 activity is observed"}, {"measurement": "inhibition of paw volume / inflammation", "setting": "[1]; listed as ultrapure AJA", "result": "effective at all doses tested"}, {"measurement": "stimulation of PGJ in HL-60 cells", "setting": "HL-60 cells", "result": "CB2 specificity"}, {"measurement": "Ki", "setting": "CB1 receptor", "result": "0.628 ± 0.006", "unit": "µM"}, {"measurement": "Ki", "setting": "hCB2 receptor", "result": "0.051 ± 0.011", "unit": "µM"}]}
